Among the data in PubChem BioAssay (NCI) are GI50 and TGI values, retold here.

What all share (assay): growth of human tumour cells (NCI), 48 h
Assay [1] concerns MCF7 breast.
Assay [2] concerns OVCAR-4 ovarian.
Assay [3] concerns HCT-15 colon.
Assay [4] deals with RPMI-8226 leukemia.
In assay [5] the test system is BT-549 breast.
The subject of assay [6] is HCC-2998 colon.
Assay [7] concerns RXF 393 renal.
The test system of assay [8] is HT29 colon.
Assay [9] has as its system MOLT-4 leukemia.
Assay [10] relates to PC-3 prostate.

Where “and” joins values, the source holds several entries; their conditions need not be identical. Equal entries are not always repeated.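 Cells were grown in 96-well plates and exposed to each compound for 48 hours at five concentrations; endpoints were interpolated linearly between bracketing concentrations, or set to the highest concentration if not reached. Abbreviation: GI50, concentration required for 50% inhibition of growth. TGI denotes the concentration required for complete inhibition of growth.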

As for `CCCCCC[C@H]1C(=O)O[C@H](C)[C@H](NC(=O)c2cccc(NC=O)c2OC)C(=O)O[C@@H](C)[C@@H]1OC(=O)CCC` (tested in a mixture with another compound), the GI50 is 33.4 µM in [1]; 12.7 µM in assay [2]; 11.1 µM in assay [3]; 12.2 µM in assay [4]; 11.9 µM in assay [5]; 14.9 µM in [6]. For the same compound, the GI50 in assay [7] was 15.3 µM; in [8], 5.98 µM; in assay [9] it was 5.64 µM; in [10], 6.23 µM. The TGI was over 100 µM in assay [1]; 29 µM in [2]; 33.3 µM in assay [3]; 37.9 µM in assay [4]; 35.5 µM in [5]; 38.2 µM in [6]. Moreover, the TGI in [7] was determined as 32.4 µM; in [8] it was 45.6 µM; in assay [9], 26.6 µM; in [10], 26.7 µM.
For `CC1OC(OC2C(O)C(O)C(O)C(O)C2O)C(N)CC1N=C(N)C(=O)O` (stereo not drawn), the TGI in assay [1], in [2], in [3], in assay [4], in [5] and in assay [6] was over 100 µM each time. Further, the TGI in [7], in [8], in assay [9] and in assay [10] was over 100 µM each time.
Turning to `CCOC(=O)/C(=C\c1ccc2ccccc2c1)P(=O)(OCC)OCC`, the GI50 in [1] is 2.14 µM; in [2], 4.16 µM; in assay [3] it was 1.7 µM; in assay [4], 2.27 µM; in assay [5] it was 2.3 µM; in assay [6], 1.96 µM. Moreover, the GI50 in assay [7] was 1.82 µM; in assay [8], 2.8 µM; in [9], 2.16 µM; in [10] it was 2.84 µM. For the same compound, the TGI in assay [1] was 7.12 µM; in [2], 20.1 µM; in [3], 4.45 µM; in assay [4], 6.54 µM; in [5] it was 5.88 µM; in assay [6] it was 3.43 µM. Also, the TGI in [7] amounted to 3.46 µM; in [8] it was 8.18 µM; in [9] it was 6.25 µM; in assay [10], 6.81 µM.
For `O=c1[nH]cnc2n[nH]nc12`, the GI50 in assay [1] is 24 µM; in [5], 2.65 µM; in [10], 5.99 µM. Besides, the TGI is over 100 µM in assay [1]; over 84.8 µM in [2]; over 100 µM in assay [3]; over 65.9 µM in assay [4]; over 100 µM in assay [5]; over 74.7 µM in assay [6]. The TGI in [7] is 14.4 µM; in assay [8], over 100 µM; in assay [9], 98.4 µM; in assay [10], over 100 µM.
As to `COc1ccc(-c2c(N)noc2-c2cc(OC)c3c(c2)OCCO3)cc1`, the GI50 in assay [1] is under 0.01 µM; in assay [2] it was 0.0847 µM; in assay [3], under 0.01 µM; in assay [4], 0.0333 µM; in assay [5], 0.0285 µM; in assay [6] it was 0.0173 µM. Moreover, the GI50 was under 0.01 µM in assay [7], under 0.01 µM in assay [8], 0.0353 µM in [9] and under 0.0157 µM in [10]. Also, the TGI in assay [1] is over 100 µM; in [2], over 100 µM; in [3] it was over 100 µM; in assay [4] it was 17.9 µM; in [5], 1.35 µM; in assay [6], 0.902 µM. The TGI in assay [7] was 0.0467 µM; in assay [8] it was 0.823 µM; in assay [9], 5.31 µM; in [10] it was over 40.7 µM.
Regarding `C#C[C@]1(O)CC[C@H]2[C@@H]3CC=C4c5nc(N)sc5CC[C@]4(C)[C@H]3CC[C@@]21C`, the GI50 in assay [1] was 3.54 µM; in assay [2] it was 13.2 µM; in [3], 3.2 µM; in assay [4] it was 1.57 µM; in assay [5] it was 1.97 µM; in assay [6], 4.21 µM. The GI50 is 1.81 µM in assay [7], 3.04 µM in [8], 2.18 µM in [9] and 3.66 µM in assay [10]. The TGI was determined as 10.1 µM in [1]; 70.5 µM in assay [2]; 17.3 µM in assay [3]; 4.73 µM in assay [4]; 6.26 µM in assay [5]; 19.2 µM in assay [6]. In addition, the TGI is 3.72 µM in assay [7], 12.4 µM in assay [8], 6.24 µM in assay [9] and 19.7 µM in assay [10].
In the case of `CN1CC[C@H](c2c(O)cc(O)c3c(=O)cc(-c4ccccc4Cl)oc23)[C@H](O)C1`, the GI50 was 0.028 µM in assay [1]; 0.14 µM in assay [2]; 0.076 µM in assay [4]; 0.0807 µM in [5]; 0.124 µM in assay [6]; 0.0204 µM in assay [7]. In addition, the figures for the GI50 in [9] and in [10] were 0.076 µM and 0.0776 µM, respectively. For the same compound, the TGI is over 10 µM in assay [1]; 1.54 µM in [2]; over 10 µM in assay [3]; over 2.32 µM in assay [4]; 0.599 µM in [5]; 0.761 µM in assay [6]. Also, the TGI in [7] was 0.0671 µM; in [8], over 10 µM; in [9], over 10 µM; in [10] it was over 2.59 µM.
In the case of `NC(=O)/C(=C/n1cnc(-c2cc(C(F)(F)F)cc(C(F)(F)F)c2)n1)c1cncnc1`, the GI50 in [1] was 0.112 µM; in [2], 0.0833 µM; in [3], 0.286 µM; in assay [4], 0.102 µM; in [5], 0.12 µM; in assay [6], 0.74 µM. The GI50 in [7] is 0.0706 µM; in assay [8], 0.422 µM; in assay [9], 0.0884 µM; in assay [10] it was 0.185 µM. Also, the TGI in [1] was found to be 11.2 µM; in assay [2], 16.1 µM; in [3], 6.93 µM; in assay [4], 9.53 µM; in assay [5], 2.98 µM; in assay [6] it was 5.34 µM. Also, the TGI in assay [7] amounted to 0.573 µM; in assay [8], 16.3 µM; in [9] it was 6.32 µM; in [10], 14.8 µM.
Consider `Cc1ccc(C2CC(c3ccc(Nc4ccnc5cc(Cl)ccc45)cc3)=NN2C=O)cc1` (stereo not drawn), for which the GI50 in assay [1] was 8.39 µM; in assay [2], 5.15 µM; in assay [3] it was 2.78 µM; in assay [4], 2.18 µM; in [5], 5.64 µM; in assay [6], 7.44 µM. Also, the GI50 in [7] was 4.89 µM; in assay [8] it was 6.09 µM; in assay [9] it was 5.13 µM; in assay [10], 4.61 µM. In addition, the TGI in assay [1], in [2], in assay [3], in assay [4], in [5] and in assay [6] was over 100 µM in each case. Also, the TGI in assay [7], in [8], in assay [9] and in assay [10] was over 100 µM each time.
On to `CC(C)OP(=O)(O)c1ncc(-c2ccc(C(F)(F)F)cc2)c(NC2CCCCCC2)n1`, for which the GI50 in assay [1] is over 100 µM; in assay [2], 61.2 µM; in [3] it was over 100 µM; in assay [4] it was 20.9 µM; in assay [5] it was over 100 µM; in assay [6] it was over 100 µM. Further, the GI50 in [7] was over 100 µM; in [8], over 100 µM; in [9], over 100 µM; in assay [10], 57.1 µM. Moreover, the TGI in assay [1], in assay [2], in [3], in assay [4], in [5] and in assay [6] was over 100 µM each time. Besides, the TGI in assay [7], in [8], in assay [9] and in assay [10] was over 100 µM in each case.
`NCCCN=c1ccc2c3c1c(O)c1c(O)ccc(=O)c1c3[nH]n2CCNCCO`: the GI50 in assay [1] is 0.796 µM; in assay [3] it was 1.4 µM; in [4], 2.93 µM; in assay [6], 1.6 µM and 3.18 µM; in [7], 3.03 µM and 1.21 µM; in assay [8], 3.08 µM. Also, the GI50 in assay [9] is 0.343 µM; in assay [10], 5.08 µM. The TGI is 21.5 µM and 11.2 µM in assay [1]; 10.5 µM and 20.1 µM in [2]; 25 µM and 112 µM in assay [3]; 9.94 µM and 22.3 µM in assay [4]; 5.31 µM in assay [5]; 11.4 µM and 26.8 µM in [6]. The TGI in assay [7] is 8.38 µM and 5.39 µM; in [8] it was 11.9 µM and 21.7 µM; in [9], 7.68 µM and 19.4 µM; in [10], 15.6 µM and 68 µM.
Take `C[As](C)SC1OCC(O)C(O)C1O` (stereo not drawn): the GI50 in [1] was 0.173 µM; in [2], 1.09 µM; in assay [3], 0.107 µM; in [4], 0.0537 µM; in assay [5], 0.363 µM; in assay [6] it was 0.224 µM. Also, the GI50 in [7] is 0.321 µM; in assay [8], 0.26 µM; in assay [9], 0.0825 µM; in assay [10], 0.506 µM. Besides, the TGI amounted to 1.29 µM in assay [1]; 7.63 µM in assay [2]; 0.611 µM in assay [3]; 0.604 µM in [4]; 1.5 µM in [5]; 0.466 µM in [6]. The TGI is 3.39 µM in assay [7], over 100 µM in assay [8], 0.395 µM in assay [9] and 5.73 µM in assay [10].
`Cc1cc(NN=C(c2ccc(O)cc2)c2ccc(O)cc2)c([N+](=O)[O-])cc1[N+](=O)[O-]`: the GI50 in assay [1] is 2.93 µM; in assay [2] it was 6.38 µM; in assay [3], 4.19 µM; in assay [4], 1.32 µM; in assay [5], 11.4 µM; in assay [6] it was 8.24 µM. In addition, the GI50 in [7] is 1.79 µM; in assay [8], 5.98 µM; in assay [9], 1.84 µM; in [10], 3.23 µM. Also, the TGI is 20.4 µM in assay [1]; over 100 µM in [2]; 53.6 µM in [3]; 4.16 µM in assay [4]; 35.5 µM in assay [5]; 28.7 µM in assay [6]. Also, the values for the TGI in assay [7], in assay [8] and in assay [9] were 6.56 µM, over 100 µM and 14.6 µM, respectively.
Take `CCOC(=O)[C@@H]1CSC(CC)=C(C(=O)O)N1`: the GI50 in assay [1], in assay [2], in assay [3], in assay [4], in assay [5] and in [6] was over 100 µM in each case. Besides, the GI50 in assay [7], in assay [8], in assay [9] and in [10] was over 100 µM each time. Besides, the TGI in [1], in assay [2], in assay [3], in [4], in assay [5] and in assay [6] was over 100 µM in each case. Besides, the TGI in assay [7], in [8], in assay [9] and in [10] was over 100 µM throughout.
As to `CCn1c(-c2nonc2N)nc2cnc(Oc3cccc(NC(=O)c4ccc(N(C)C)cc4)c3)cc21`, the GI50 is over 25 µM in [1]; over 25 µM in assay [2]; 8.55 µM in [3]; over 25 µM in [4]; 0.859 µM in [5]; over 25 µM in assay [6]. In addition, the GI50 in assay [7] was 16.9 µM; in assay [8], over 25 µM; in assay [9] it was 13.6 µM; in assay [10], 12.4 µM. Besides, the TGI in assay [1], in [2], in assay [3], in assay [4], in assay [5] and in assay [6] was over 25 µM in each case. Besides, the TGI in assay [7], in [8], in [9] and in [10] was over 25 µM in each case.
